{
  "source": "patent US20070112018A1",
  "about": "“Treatment of peripheral arterial occlusive disease” (priority 2005, published 2007)",
  "key": {"C. pneumoniae [1]": {"tested_on": "C. pneumoniae", "conditions": "cited from earlier work"}, "[2]": {"conditions": "male, human, in vivo", "description": "In another study, three dose levels of rifalazil were administered for the treatment of non-gonococcal urethritis in 170 male patients. Doses used were in this study were single-doses of 2.5, 12.5 mg and 25 mg. Males were between 18-45 years of age with signs or symptoms of urethritis, including urethral discharge."}, "[3]": {"conditions": "300 mg, 3 days, 2 years of follow-up; cited from earlier work"}, "[4]": {"conditions": "in vivo; cited from earlier work"}, "C. pneumoniae [5]": {"tested_on": "C. pneumoniae", "experiment": "Rabbit model of atherosclerosis accelerated by C. pneumoniae infection, cholesterol diet", "conditions": "C. pneumoniae-infected rabbits; rifalazil 5 mg/kg or azithromycin 30 mg/kg PO daily 1 week then twice weekly 6 weeks; 19 weeks after beginning treatment", "method": "Thirty received three separate C. pneumoniae inoculations performed at 3-week intervals. Similarly, 15 control rabbits were intranasally inoculated with 1 mL of normal saline under the same conditions.\nNineteen weeks after beginning antibiotic treatment, the rabbits were euthanized. After euthanasia, hearts were examined histologically and by immunofluorescence. Animal serum samples were also examined for seropositivity to the infecting organism."}},
  "data": [
    {"smiles": "CC[C@H]1OC(=O)[C@H](C)[C@@H](O[C@H]2C[C@@](C)(OC)[C@@H](O)[C@H](C)O2)[C@H](C)[C@@H](O[C@@H]2O[C@H](C)C[C@H](N(C)C)[C@H]2O)[C@](C)(O)C[C@@H](C)/C(=N\\OCOCCOC)[C@H](C)[C@@H](O)[C@]1(C)O", "note": "[roxithromycin]", "values": [
      {"measurement": "prevention of progression of lower limb atherosclerosis", "setting": "C. pneumoniae [1]; daily for 28 days, C. pneumoniae seropositive men, almost 3 years", "result": "statistically significant benefit"},
      {"measurement": "number of invasive revascularization procedures", "setting": "C. pneumoniae [1]; daily for 28 days", "result": "reduced the number of invasive revascularization procedures"},
      {"measurement": "soft plaque components in carotid arteries", "setting": "C. pneumoniae [1]; over a 6-month period", "result": "statistically significant reduction of soft plaque components"}
    ]},
    {"smiles": "CC[C@H]1OC(=O)[C@H](C)[C@@H](O[C@H]2C[C@@](C)(OC)[C@@H](O)[C@H](C)O2)[C@H](C)[C@@H](O[C@@H]2O[C@H](C)C[C@H](N(C)C)[C@H]2O)[C@](C)(O)C[C@@H](C)CN(C)[C@H](C)[C@@H](O)[C@]1(C)O", "note": "[azithromycin]", "values": [
      {"measurement": "incidence of AEs considered possibly related to study drug", "setting": "[2]", "result": 24, "unit": "%"},
      {"measurement": "incidence of clinically significant laboratory abnormalities", "setting": "[2]", "result": 21, "unit": "%"},
      {"measurement": "morbidity or mortality in PAOD patients", "setting": "[3]", "result": "no significant reduction of morbidity or mortality"},
      {"measurement": "t1/2", "setting": "[4]", "result": 65, "unit": "h"},
      {"measurement": "Plaque Area Stenosis (%)", "setting": "C. pneumoniae [5]", "result": 30.2, "unit": "%"}
    ]},
    {"smiles": "CN[C@H]1C(=O)N[C@@H]2Cc3ccc(cc3)Oc3cc4cc(c3O[C@@H]3O[C@H](C(=O)O)[C@@H](O)[C@H](O)[C@H]3NC(=O)CCCCCCCCC(C)C)Oc3ccc(cc3Cl)[C@@H](O)[C@@H]3NC(=O)[C@H](NC(=O)[C@@H]4NC(=O)[C@@H](NC2=O)c2cc(cc(O)c2Cl)Oc2cc1ccc2O)c1ccc(O)c(c1)-c1c(O[C@H]2O[C@H](CO)[C@@H](O)[C@H](O)[C@@H]2O)cc(O)cc1[C@@H](C(=O)NCCCN(C)C)NC3=O", "note": "[Dalbavancin]", "values": [
      {"measurement": "t1/2", "setting": "[4]", "result": "approximately 180 hours"}
    ]}
  ]
}
